Results published in US20190274948A1, “PREBIOTIC COSMETIC COMPOSITIONS AND USE OF THE PREBIOTIC COSMETIC COMPOSITIONS” (Natura Cosméticos S.A., priority 2016, published 2019).
Read-outs that look alike come from different tables or passages of the source.

What was measured:
[1] = test system: Staphylococcus epidermidis; assay: Prebiotic activity: growth in minimal carbon support medium; format: cell-based; conditions: 0.5%
Description: (§1) When a concentration of 10^4 UFC/ml was reached, the micro-organisms were transferred to a minimal carbon support medium that provided the conditions required for micro-organism replication.
(§2) Each active ingredient in the compositions addressed by this invention was added to the culture medium and cultivated. Should any increased count be noted, the ingredient would be considered as having prebiotic activity.
(§3) The results of each assay were submitted to statistical analysis. The active ingredients used in the prebiotic cosmetic compositions addressed by this invention were tested on different micro-organisms.
(§4) The beneficial micro-organisms assayed were: Staphylococcus epidermidis, Staphylococcus xylosus, Staphylococcus warneri, Staphylococcus captis and Corynebacterium xerosis.

Staphylococcus xylosus = assay: as above; format: cell-based
Description: as §1, §2, §3, §4

elastin = assay: Elastin synthesis in human fibroblast cultures; format: cell-based; conditions: 48 hours, vs Baseline Control
Description: Human fibroblast cultures were incubated for 48 hours with the product.

IL-6 = IL-6 synthesis in human fibroblast cultures stimulated with PMA/LPS; format: cell-based; conditions: vs PMA/LPS Control
IL-8 = IL-8 synthesis in human fibroblast cultures stimulated with LPS; format: cell-based; conditions: 3.12% (w/v); vs LPS Control
IL-10 = IL-10 synthesis in human fibroblast cultures stimulated with PMA/LPS; format: cell-based; conditions: concentration not given; vs PMA/LPS Control
MMP-1 = MMP-1 synthesis in human fibroblast cultures stimulated with LPS; format: cell-based; conditions: 6.25% (p/v); vs PMA/LPS Control
human fibroblasts = assay: Cell proliferation in human fibroblast cultures; format: cell-based; conditions: for increase of proliferation: vs Control group
Description: As a positive assay control, human fibroblasts were cultivated in a culture medium supplemented with 2% of fetal bovine serum.

GAG = conditions: 72 hours
[2] = test system: tested skin-dwelling micro-organisms; assay: Prebiotic activity on panel of beneficial and undesirable skin micro-organisms; format: cell-based; conditions: FIG. 1
Description: as §1, §2, §3, §4
The undesirable micro-organisms assayed were: Staphylococcus aureus, Corynebacterium striatum, Corynebacterium jeikeium, Propioniumbacteria acnes and Candida albicans.

Compound | growth of S. epidermidis [1] | growth of S. xylosus (Staphylococcus xylosus) | increase of elastin synthesis (elastin; 1.56% (w/v)) [%] | increase of elastin synthesis (elastin; 3.12% (w/v)) [%] | increase of elastin synthesis (elastin; 6.25% (w/v)) [%] | drop of IL-6 synthesis (IL-6; 3.12% (w/v)) [%] | drop of IL-6 synthesis (IL-6; 6.25% (w/v)) [%] | reduction of IL-8 synthesis (IL-8) [%] | reductions of IL-10 synthesis (IL-10) | reduction in MMP-1 synthesis (MMP-1) [%] | increase of proliferation (human fibroblasts; 1.563% (w/v)) [%] | increase of proliferation (human fibroblasts; 6.250% (w/v)) [%] | Fibroblast proliferation, Increase (human fibroblasts; Table 1) | lowering of GAG levels (GAG; 3.12% (w/v)) [%] | lowering of GAG levels (GAG; 6.25% (w/v)) [%] | selectivity for any of the tested skin-dwelling micro-organisms [2]
OC[C@H]1O[C@H](O[C@H]2O[C@H](CO)[C@@H](O)[C@H](O)[C@H]2O)[C@H](O)[C@@H](O)[C@@H]1O [trehalose] | selectively favored the growth | selectively favored the growth | 75 | 68 | 60 | 19 | 78 | 16 | up to 31% | 20 | 33 | 12.25 | of 33% | 23 | 59 | –
inulin | – | – | – | – | – | – | – | – | – | – | – | – | – | – | – | did not present selectivity
